Source: patent US20260159500A1, “KINESIN KIF18A INHIBITOR AND USE THEREOF” (SHANGHAI APEIRON THERAPEUTICS COMPANY LIMITED, priority 2022, published 2026)

Tests used:
HT29 cells = assay: CyQuant cell proliferation activity test in HT29 cells; type: cell-based; conditions: Homo sapiens, HT-29, 72 h, 2000 cells per well, 3 days incubation, IC50 by XLFIT, read-out: HT29_IC50_nM
Procedure: HT29 cells were purchased from Nanjing Cobioer Biosciences Co., Ltd.; RPMI-1640 medium, fetal bovine serum, Trypsin-EDTA (0.25%), 96-well plates, and CyQuant reagents were purchased from ThermoFisher (USA); DMSO was purchased from SIGMA (USA).
Culture HT29 cells with RPMI-1640 containing 10% fetal bovine serum under the condition of 37° C. and 5% CO2. Only cells in the logarithmic growth phase can be used for the test.
Use the CyQuant reagent to detect the proliferation inhibitory activity of compounds on HT29 cells. Adjust the cell density and inoculate 100 μL per well into the 96-well plate (HT29 at 2000 cells per well), then incubate overnight under the condition of 37° C. and 5% CO2. Add compounds of various target concentrations (initial concentration of 3000 nM, 3-fold dilution, 9 concentration gradients), and make the DMSO content 0.2%. Incubate the cell plates at 37° C. and 5% CO2 for 3 days. Incubate with CyQuant reagent for 1 h, read the plate by Envision, and calculate IC50 using XLFIT.

OVCAR3 cells = assay: Cell proliferation activity test in OVCAR3 cells (CyQUANT Direct); type: cell-based; conditions: Homo sapiens, OVCAR-3, 72 h, 3 days incubation, CyQUANT fluorescence detection, read-out: OVCAR-3_IC50_nM
Procedure: OVCAR3 cells were purchased from Nanjing Cobioer Biosciences Co., Ltd. RPMI-1640 medium, fetal bovine serum, and the CyQUANT Direct Cell Proliferation Assay kit were purchased from Thermo Fisher Scientific, USA; 96-well cell culture plates were sourced from Corning, USA.
Culture OVCAR3 cells with RPMI-1640 medium containing 10% fetal bovine serum and incubate them in a 5% CO2 incubator at 37° C. Only cells in the logarithmic growth phase can be used for the test.
Inoculate OVCAR3 cells into a 96-well cell culture plate at 90 μL per well and incubate overnight in a 5% CO2 incubator at 37° C. Dissolve the compound powder in DMSO to prepare a stock solution of 10 mM. Then perform gradient dilution for the compounds in the microplate to achieve a final concentration of 0-10 μM. Add 10 μL of cell culture medium containing compounds to each well to make the final DMSO content 0.2%. Incubate the cell plates in a 5% CO2 incubator at 37° C. for 3 days. Add 100 μL of CyQUANT detection reagent to each well, react at 37° C. for 60 min, and perform fluorescence detection using the PerkinElmer Envision.

[1] = target: T1, Human KIF18A (amino acid sequence 1-417) (Homo sapiens, UniProt Q8NI77); assay: Enzymatic activity test (ADP-Glo, microtubule-stimulated KIF18A ATPase); type: biochemical; conditions: 60 μg/mL microtubules, 25 μM ATP, 2.5 nM KIF18A protein, 120 min at ambient temperature, read-out: KIF18A_nM
T1 construct: purchased Viva Biotech (Shanghai) Ltd
T1 sequence (Q8NI77 1-417): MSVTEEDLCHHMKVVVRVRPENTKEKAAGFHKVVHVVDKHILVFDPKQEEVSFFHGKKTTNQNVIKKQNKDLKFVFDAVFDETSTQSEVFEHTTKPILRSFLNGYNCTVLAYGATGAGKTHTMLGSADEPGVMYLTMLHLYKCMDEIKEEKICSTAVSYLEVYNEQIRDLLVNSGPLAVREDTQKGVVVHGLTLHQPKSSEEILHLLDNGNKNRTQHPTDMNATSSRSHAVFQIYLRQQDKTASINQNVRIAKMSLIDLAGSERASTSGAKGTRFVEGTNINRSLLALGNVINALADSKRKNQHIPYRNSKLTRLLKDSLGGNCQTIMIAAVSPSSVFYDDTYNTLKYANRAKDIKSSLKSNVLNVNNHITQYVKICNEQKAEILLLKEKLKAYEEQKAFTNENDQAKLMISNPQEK
Procedure: Human KIF18A (amino acid sequence 1-417) was purchased from Viva Biotech (Shanghai) Ltd.; the ADP-Glo™ protein kinase kit was acquired from Promega, USA; tubulin was sourced from Cytoskeleton, USA; and the 384-well assay plate and Envision multifunctional microplate reader were obtained from PerkinElmer, USA.
Dissolve the compound powder in DMSO to prepare a stock solution of 10 mM. Then perform gradient dilution for the compounds in the microplate to achieve a final concentration of 0-10 μM. Then, add 2.5 μL each of tubulin, compound, ATP, and KIF18A protein to the microplate in sequence for reaction at ambient temperature for 120 min. The final concentrations in the enzyme reaction are 60 μg/mL for microtubules, 25 μM for ATP, and 2.5 nM for KIF18A protein. After the enzyme reaction, add 10 μL of ADP-GLO reaction reagent to each well and incubate at ambient temperature for 30 min. After that, add 20 μL of detection reagent to each well and incubate at ambient temperature for 30 min in the dark. Finally, perform chemiluminescence detection using the PerkinElmer Envision.

Compound: O=C(Nc1cc2ccsc2c(N2CCC(F)(F)CC2)n1)c1ccc(NS(=O)(=O)CCO)cc1N1CCC2(CC1)CC2 [Example 28, N-(7-(4,4-difluoropiperidin-1-yl)thieno[2,3-c]pyridin-5-yl)-4-(2-hydroxyethylsulfonamido)-2-(6-azaspiro[2.5]octan-6-yl)benzamide]
- IC50 (HT29 cells): 9 nM
- IC50 (OVCAR3 cells): 26 nM
- IC50 [1]: 46 nM

Compound: O=C(Nc1cc2ccoc2c(N2CCC(F)(F)CC2)n1)c1ccc(NS(=O)(=O)CCO)cc1N1CCC2(CC1)CC2 [Example 29, N-(7-(4,4-difluoropiperidin-1-yl)furo[2,3-c]pyridin-5-yl)-4-(2-hydroxyethylsulfonamido)-2-(6-azaspiro[2.5]octan-6-yl)benzamide]
- IC50 (HT29 cells): 11 nM
- IC50 (OVCAR3 cells): 13 nM
- IC50 [1]: 28 nM

Compound: O=C(Nc1cc(N2CCC(F)(F)CC2)c2occc2c1)c1ccc(NS(=O)(=O)CCO)cc1N1CCC2(CC1)CC2 [Example 30, N-(7-(4,4-difluoropiperidin-1-yl)benzofuran-5-yl)-4-(2-hydroxyethylsulfonamido)-2-(6-azaspiro[2.5]octan-6-yl)benzamide]
- IC50 (HT29 cells): 10 nM
- IC50 (OVCAR3 cells): 7 nM
- IC50 [1]: 27 nM

Compound: O=C(Nc1cc2occc2c(N2CCC(F)(F)CC2)n1)c1ccc(NS(=O)(=O)CCO)cc1N1CCC2(CC1)CC2 [Example 31, N-(4-(4,4-difluoropiperidin-1-yl)furo[3,2-c]pyridin-6-yl)-4-(2-hydroxyethylsulfonamido)-2-(6-azaspiro[2.5]octan-6-yl)benzamide]
- IC50 (HT29 cells): 9 nM
- IC50 (OVCAR3 cells): 8 nM
- IC50 [1]: 71 nM

Compound: O=C(Nc1nc(N2CCC(F)(F)CC2)c2occc2n1)c1ccc(NS(=O)(=O)CCO)cc1N1CCC2(CC1)CC2 [Example 32, N-(4-(4,4-difluoropiperidin-1-yl)furo[3,2-d]pyrimidin-2-yl)-4-((2-hydroxyethyl)sulfanilamide)-2-(6-azaspiro[2.5]octan-6-yl)benzamide]
- IC50 (HT29 cells): 927 nM
- IC50 (OVCAR3 cells): 347 nM
- IC50 [1]: 8 nM

Compound: Cn1cnc2cc(NC(=O)c3ccc(NS(=O)(=O)CCO)cc3N3CCC4(CC3)CC4)nc(N3CCC(F)(F)CC3)c21 [Example 34]
- IC50 (HT29 cells): 446 nM
- IC50 (OVCAR3 cells): 166 nM
- IC50 [1]: 63 nM

Compound: Cn1cnc2c(N3CCC(F)(F)CC3)nc(NC(=O)c3ccc(NS(=O)(=O)CCO)cc3N3CCC4(CC3)CC4)cc21 [Example 35, N-(4-(4,4-difluoropiperidin-1-yl)-1-methyl-1H-imidazolo[4,5-c]pyridin-6-yl)-4-((2-hydroxyethyl)sulfonamido)-2-(6-azaspiro[2.5]octan-6-yl)benzamide]
- IC50 (HT29 cells): 57 nM
- IC50 (OVCAR3 cells): 27 nM
- IC50 [1]: 29 nM

Compound: Cn1ncc2c(N3CCC(F)(F)CC3)nc(NC(=O)c3ccc(NS(=O)(=O)CCO)cc3N3CCC4(CC3)CC4)cc21 [Example 36]
- IC50 (HT29 cells): 62 nM
- IC50 (OVCAR3 cells): 64 nM
- IC50 [1]: 39 nM

Compound: Cn1ccc2cc(NC(=O)c3ccc(NS(=O)(=O)CCO)cc3N3CCC4(CC3)CC4)nc(N3CCC(F)(F)CC3)c21 [Example 37]
- IC50 (HT29 cells): 25 nM
- IC50 (OVCAR3 cells): 121 nM
- IC50 [1]: 121 nM

Compound: O=C(Nc1cc2nsnc2c(N2CCC(F)(F)CC2)n1)c1ccc(NS(=O)(=O)CCO)cc1N1CCC2(CC1)CC2 [Example 39]
- IC50 (HT29 cells): 18 nM
- IC50 (OVCAR3 cells): 15 nM
- IC50 [1]: 38 nM

Compound: O=C(Nc1cc(N2CCC(F)(F)CC2)c2nsnc2c1)c1ccc(NS(=O)(=O)CCO)cc1N1CCC2(CC1)CC2 [Example 40, 2-(6-Azaspiro[2.5]oct-6-yl)-4-(2-hydroxyethylsulfonyl)aminophenyl)-N-[4-(4,4-difluoropiperidinyl)benzo[3,4-c]1,2,5-thiadiazole-5-ylcarboxamide]
- IC50 (HT29 cells): 10 nM
- IC50 (OVCAR3 cells): 12 nM
- IC50 [1]: 32 nM

Compound: O=C(Nc1cc(N2CCC(F)(F)CC2)c2ncsc2c1)c1ccc(NS(=O)(=O)CCO)cc1N1CCC2(CC1)CC2 [Example 41, 2-{6-Azaspiro[2.5]octan-6-yl}-N-[4-(4,4-difluoropiperidin-1-yl)-1,3-benzothiazol-6-yl]-4-(2-hydroxyethanesulfonamido) benzamide]
- IC50 (HT29 cells): 4 nM
- IC50 (OVCAR3 cells): 4 nM
- IC50 [1]: 38 nM

Compound: Nc1nc2c(N3CCC(F)(F)CC3)c(F)c(NC(=O)c3ccc(NS(=O)(=O)CCO)cc3N3CCC4(CC3)CC4)cc2s1 [Example 42, N-[2-amino-4-(4,4-difluoropiperidin-1-yl)-5-fluoro-1,3-benzothiazol-6-yl]-2-{6-azaspiro[2.5]octan-6-yl}-4-(2-hydroxyethanesulfonamido)benzamide]
- IC50 (HT29 cells): 17 nM
- IC50 (OVCAR3 cells): 7 nM
- IC50 [1]: 213 nM

Compound: O=C(Nc1cc2c(c(N3CCC(F)(F)CC3)n1)C(=O)NCC2)c1ccc(NS(=O)(=O)CCO)cc1N1CCC2(CC1)CC2 [Example 43, N-(1-(4,4-difluoropiperidin-1-yl)-8-oxo-5,6,7,8-tetrahydro-2,7-naphthyridin-3-yl)-4-(2-hydroxyethylsulfonamido)-2-(6-azaspiro[2.5]octan-6-yl)benzamide]
- IC50 (HT29 cells): 17 nM
- IC50 (OVCAR3 cells): 7 nM
- IC50 [1]: 28.7 nM

Compound: O=C(Nc1cc2cccnc2c(N2CCC(F)(F)CC2)n1)c1ccc(NS(=O)(=O)CCO)cc1N1CCC2(CC1)CC2 [Example 44]
- IC50 (HT29 cells): 26 nM
- IC50 (OVCAR3 cells): 21 nM
- IC50 [1]: 105 nM

Compound: O=C(Nc1cc2cccnc2c(N2CCC(F)(F)CC2)n1)c1cc(F)c(NS(=O)(=O)CCO)cc1N1CCC2(CC1)CC2 [Example 45, N-(8-(4,4-difluoropiperidin-1-yl)-1,7-naphthyridin-6-yl)-5-fluoro-4-((2-hydroxyethyl)sulfonamide)-2-(6-azaspiro[2.5]octan-6-yl)benzamide]
- IC50 (HT29 cells): 31 nM
- IC50 (OVCAR3 cells): 18 nM
- IC50 [1]: 28 nM

Compound: O=C(Nc1cc2cccnc2c(N2CCC(F)(F)CC2)n1)c1c(F)cc(NS(=O)(=O)CCO)cc1N1CCC2(CC1)CC2 [Example 46, N-(8-(4,4-difluoropiperidin-1-yl)-1,7-naphthyridin-6-yl)-2-fluoro-4-((2-hydroxyethyl)sulfonamido)-6-(6-azaspiro[2.5]octan-6-yl)benzamide]
- IC50 (HT29 cells): 14 nM
- IC50 (OVCAR3 cells): 12 nM
- IC50 [1]: 39 nM

Compound: C[C@@H]1CN(c2nc(NC(=O)c3ccc(NS(=O)(=O)CCO)cc3N3CCC4(CC3)CC4)cc3cccnc23)CCO1 [Example 47]
- IC50 (HT29 cells): 40 nM
- IC50 (OVCAR3 cells): 48 nM
- IC50 [1]: 39 nM

Compound: CN1CCN(c2nc(NC(=O)c3ccc(NS(=O)(=O)CCO)cc3N3CCC4(CC3)CC4)cc3cccnc23)CC1 [Example 48]
- IC50 (HT29 cells): 360 nM
- IC50 (OVCAR3 cells): 236 nM
- IC50 [1]: 108 nM

Compound: O=C(Nc1cc2cccnc2c(N2CCN(CC(F)(F)F)CC2)n1)c1ccc(NS(=O)(=O)CCO)cc1N1CCC2(CC1)CC2 [Example 49, 4-(2-hydroxyethylsulfonamido)-2-(6-azaspiro[2.5]octan-6-yl)-N-(8-(4-(2,2,2-trifluoroethyl)piperazin-1-yl)-1,7-naphthyridin-6-yl)benzamide]
- IC50 (HT29 cells): 1430 nM
- IC50 (OVCAR3 cells): 1340 nM
- IC50 [1]: 1220 nM
